From article PMC4432589, “Structural basis for dynamic mechanism of nitrate/nitrite antiport by NarK” (Nature Communications, 2015)

Key:
NarK [1] = target: T1, NarK (Escherichia coli, UniProt P10903); test: nitrite uptake into NarK proteoliposomes, DAF-FM fluorescence; type: biochemical; conditions: 50 mM NaNO2 outside, 50 mM NaNO3 inside as counter-anion; pH 7.0; membrane potential; 37 °C
T1 construct: full-length gene in pET-modified vector; GFP-His8 tag cleaved by TEV protease; expressed in E. coli C41(DE3) delta-acrB; DDM/CHS purified; LCP crystals or soybean lipid proteoliposomes
T1 sequence (P10903 1-463): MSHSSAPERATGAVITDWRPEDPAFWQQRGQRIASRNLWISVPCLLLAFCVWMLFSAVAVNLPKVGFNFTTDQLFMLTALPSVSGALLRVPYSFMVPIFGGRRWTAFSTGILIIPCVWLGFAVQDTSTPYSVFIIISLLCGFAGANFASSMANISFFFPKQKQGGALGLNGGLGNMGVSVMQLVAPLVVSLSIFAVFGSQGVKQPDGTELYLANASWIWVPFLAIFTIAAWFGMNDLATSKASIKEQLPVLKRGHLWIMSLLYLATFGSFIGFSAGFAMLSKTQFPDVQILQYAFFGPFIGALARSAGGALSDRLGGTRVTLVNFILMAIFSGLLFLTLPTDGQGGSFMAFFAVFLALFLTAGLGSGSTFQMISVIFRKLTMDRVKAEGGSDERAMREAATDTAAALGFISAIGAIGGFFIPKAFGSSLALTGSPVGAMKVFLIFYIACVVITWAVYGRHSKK

NarK [2] = target: T1, NarK; test: X-ray crystal structure (LCP, SIRAS and molecular replacement); conditions: occluded state (2.4 Å, pH 5.8, 100 mM NH4NO3) and inward-open state (2.4 Å, pH 6.0); central substrate-binding site

O=NO [nitrite]
nitrite uptake into NarK proteoliposomes, DAF-FM fluorescence (NarK [1]): We observed the uptake of nitrite when nitrate was present inside the liposomes

O=[N+]([O-])O [nitrate]
X-ray crystal structure (LCP, SIRAS and molecular replacement) (NarK [2]): 4U4T (nitrate-bound inward-open state) and 4U4W (nitrate-bound occluded state)
